Among the data in patent publication US9751861B2, “N1-(3,3,3-trifluoro-2-hydroxo-2-methylpropionyl)-piperidine derivatives as inhibitors of pyruvate dehydrogenase kinase” (MERCK PATENT GMBH, priority 2013, dated 2017) are Kd and IC50 values, retold here.

For one assay, the target named is T1, human PDHK2 (12-407) (Homo sapiens, UniProt Q15119).
T1 construct: The human PDHK2 (12-407) was produced in E. coli; His-tag (cleaved yes); made in house; host or cells: E. coli
Nature of the assay: Isothermal titration calorimetry (ITC) binding. The note with it: 30° C., pH 7.5. In a few lines: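 Untagged PDHK2 (12-407) from E. coli at 50 μM titrated into 5 μM compound at 30° C in pH 7.5 HEPES/KCl/MgCl2/phosphate buffer, ≤1% DMSO. One-site fit gave KA, ΔH^obs and N after heat-of-dilution correction; protein concentration referenced to a standard inhibitor and compound concentration adjusted to 1:1 stoichiometry.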

The subject of a further assay is PDH-Elalpha (pSer300). Nature of the assay: Cellular immunofluorescence assay in HEK293T cells. The assay is classed as cell-based. The note with it: Homo sapiens, HEK-293T, 5 hours incubation, anti-PDH-E1alpha pSer300 immunofluorescence, read-out: IC50 (cell data). In a few lines:
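HEK293T cells were exposed to compound for 5 hours, then fixed, permeabilised and immunostained for PDH-Elalpha pSer300 with Hoechst counterstain, read by laser scanning cytometry. Percent effect was normalized to a pharmacological inhibitor control and fitted to dose-response curves.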

For a further assay, the target named is T2, PDHK2 (Homo sapiens, UniProt Q15119).
T2 construct: purchased Carna Bioscience
Put plainly: Biochemical activity testing of PDHK2: PDC inactivation assay. The note with it: human rec PDHK2, PDC from porcine heart, ATP 5 μM; read-out: IC50 PDHK2 (enzyme assay). In outline:
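Human recombinant PDHK2 (137 nM final) preincubated 30 min at RT with porcine heart PDC (20 mU/ml) and compound in pH 7.0 phosphate buffer, then phosphorylated with 5 μM ATP for 30 min at 37 °C. Residual PDC activity read as NADH fluorescence increase (Ex 340/Em 450) over 45 min; inhibitor-free reaction as full value, 3 mM DCA as zero, IC50 derived.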

The molecule `C[C@@H]1CN(C(=O)[C@@](C)(O)C(F)(F)F)CC[C@@H]1c1ccnn1[C@H]1CC[C@@H](O)CC1` [Compound A120, (R)-3,3,3-Trifluoro-2-hydroxy-1-{(3S,4S)-4-[2-(4-hydroxy-cyclohexyl)-2H-pyrazol-3-yl]-3-methyl-piperidin-1-yl}-2-methyl-propan-1-one] gave a Kd on human PDHK2 (12-407) of less than 300 nM. Also, the IC50 in the assay with PDH-Elalpha (pSer300) is 300 to 3000 nM; at PDHK2, less than 300 nM.

On to `C[C@@H]1CN(C(=O)[C@@](C)(O)C(F)(F)F)CC[C@@H]1c1ccnn1[C@H]1CC[C@H](O)CC1` [Compound A121, (R)-3,3,3-Trifluoro-2-hydroxy-1-{(3S,4S)-4-[2-(4-hydroxy-cyclohexyl)-2H-pyrazol-3-yl]-3-methyl-piperidin-1-yl}-2-methyl-propan-1-one], for which the Kd on human PDHK2 (12-407) is less than 300 nM. Besides, the IC50 in the assay with PDH-Elalpha (pSer300) is 300 to 3000 nM; at PDHK2, less than 300 nM.

`C[C@@](O)(C(=O)N1CCC(c2cncn2-c2ccc(F)cc2)CC1)C(F)(F)F` [Compound A124, (R)-3,3,3-Trifluoro-1-{4-[3-(4-fluoro-phenyl)-3H-imidazol-4-yl]-piperidin-1-yl}-2-hydroxy-2-methyl-propan-1-one] had a Kd on human PDHK2 (12-407) of less than 300 nM. In addition, the IC50 in the assay with PDH-Elalpha (pSer300) and at PDHK2 was 300 to 3000 nM throughout.

In turn, `C[C@@](O)(C(=O)N1CCC(c2cncn2-c2ccc(Cl)cc2)CC1)C(F)(F)F` [Compound A125, (R)-1-{4-[3-(4-Chloro-phenyl)-3H-imidazol-4-yl]-piperidin-1-yl}-3,3,3-trifluoro-2-hydroxy-2-methyl-propan-1-one] registered a Kd at human PDHK2 (12-407) of less than 300 nM. Further, the IC50 in the assay with PDH-Elalpha (pSer300) and on PDHK2 was 300 to 3000 nM in each case.

Molecule `C[C@@](O)(C(=O)N1CCC(c2cncn2-c2ccc(Cl)cc2F)CC1)C(F)(F)F` [Compound A126, (R)-1-{4-[3-(4-Chloro-2-fluoro-phenyl)-3H-imidazol-4-yl]-piperidin-1-yl}-3,3,3-trifluoro-2-hydroxy-2-methyl-propan-1-one] came in with a Kd on human PDHK2 (12-407) of less than 300 nM. Moreover, the IC50 in the assay on PDH-Elalpha (pSer300) was 300 to 3000 nM; at PDHK2, less than 300 nM.

On human PDHK2 (12-407), `C[C@@](O)(C(=O)N1CCC(c2cncn2-c2ccc(C(F)(F)F)cc2)CC1)C(F)(F)F` [Compound A127, (R)-3,3,3-Trifluoro-2-hydroxy-2-methyl-1-{4-[3-(4-trifluoromethyl-phenyl)-3H-imidazol-4-yl]-piperidin-1-yl}-propan-1-one] gave a Kd of less than 300 nM. In addition, the IC50 with PDH-Elalpha (pSer300) and on PDHK2 was 300 to 3000 nM in each case.

Consider `C[C@@](O)(C(=O)N1CCC(c2conc2-c2ccccc2)CC1)C(F)(F)F` [Compound A128, (R)-3,3,3-Trifluoro-2-hydroxy-2-methyl-1-[4-(3-phenyl-isoxazol-4-yl)-piperidin-1-yl]-propan-1-one], for which the Kd on human PDHK2 (12-407) is less than 300 nM. Moreover, the values for the IC50 in the assay with PDH-Elalpha (pSer300) and on PDHK2 were 3000 to 50000 nM and 300 to 3000 nM, respectively.

`C[C@@](O)(C(=O)N1CCC(c2conc2-c2ccc(F)cc2)CC1)C(F)(F)F` [Compound A129, (R)-3,3,3-Trifluoro-1-{^4-[3-(4-fluoro-phenyl)-isoxazol-4-yl]-piperidin-1-yl}-2-hydroxy-2-methyl-propan-1-one]: the Kd at human PDHK2 (12-407) is less than 300 nM. In addition, the IC50 in the assay with PDH-Elalpha (pSer300) fell in the range of 3000 to 50000 nM; at PDHK2 it was 300 to 3000 nM.

Turning to `C[C@@](O)(C(=O)N1CCC(c2cncn2-c2ccc(F)cc2F)CC1)C(F)(F)F` [Compound A130, (R)-1-{4-[3-(2,4-Difluoro-phenyl)-3H-imidazol-4-yl]-piperidin-1-yl}-3,3,3-trifluoro-2-hydroxy-2-methyl-propan-1-one], the Kd on human PDHK2 (12-407) is less than 300 nM. Moreover, the IC50 in the assay with PDH-Elalpha (pSer300) and at PDHK2 was 300 to 3000 nM throughout.

Molecule `COc1ccc(-n2cncc2C2CCN(C(=O)[C@@](C)(O)C(F)(F)F)CC2)cc1` [Compound A131, (R)-3,3,3-Trifluoro-2-hydroxy-1-{4-[3-(4-methoxy-phenyl)-3 H-imidazol-4-yl]-piperidin-1-yl}-2-methyl-propan-1-one] yielded a Kd on human PDHK2 (12-407) of less than 300 nM. Also, the IC50 in the assay with PDH-Elalpha (pSer300) and at PDHK2 was 300 to 3000 nM throughout.

As a reminder, the Kd is the concentration at which binding is half-saturated. A low value points to tighter binding. As a reminder, the IC50 is the midpoint of a concentration-inhibition curve.
